Data taken from ChEMBL document CHEMBL3045722, “Synthesis, calcium-channel blocking activity, and conformational analysis of some novel 1,4-dihydropyridines: application of PM3 and DFT computational methods” (Med Chem Res, 2012).

The compounds below were run against Voltage-dependent L-type calcium channel subunit alpha-1C (Cavia porcellus, UniProt O35505) (assay: Antagonist activity at Cavia porcellus albino (guinea pig) calcium channel assessed as inhibition of KCl-induced ileal longitudinal smooth muscle contraction).
Voltage-dependent L-type calcium channel subunit alpha-1C, sequence (O35505 whole entry): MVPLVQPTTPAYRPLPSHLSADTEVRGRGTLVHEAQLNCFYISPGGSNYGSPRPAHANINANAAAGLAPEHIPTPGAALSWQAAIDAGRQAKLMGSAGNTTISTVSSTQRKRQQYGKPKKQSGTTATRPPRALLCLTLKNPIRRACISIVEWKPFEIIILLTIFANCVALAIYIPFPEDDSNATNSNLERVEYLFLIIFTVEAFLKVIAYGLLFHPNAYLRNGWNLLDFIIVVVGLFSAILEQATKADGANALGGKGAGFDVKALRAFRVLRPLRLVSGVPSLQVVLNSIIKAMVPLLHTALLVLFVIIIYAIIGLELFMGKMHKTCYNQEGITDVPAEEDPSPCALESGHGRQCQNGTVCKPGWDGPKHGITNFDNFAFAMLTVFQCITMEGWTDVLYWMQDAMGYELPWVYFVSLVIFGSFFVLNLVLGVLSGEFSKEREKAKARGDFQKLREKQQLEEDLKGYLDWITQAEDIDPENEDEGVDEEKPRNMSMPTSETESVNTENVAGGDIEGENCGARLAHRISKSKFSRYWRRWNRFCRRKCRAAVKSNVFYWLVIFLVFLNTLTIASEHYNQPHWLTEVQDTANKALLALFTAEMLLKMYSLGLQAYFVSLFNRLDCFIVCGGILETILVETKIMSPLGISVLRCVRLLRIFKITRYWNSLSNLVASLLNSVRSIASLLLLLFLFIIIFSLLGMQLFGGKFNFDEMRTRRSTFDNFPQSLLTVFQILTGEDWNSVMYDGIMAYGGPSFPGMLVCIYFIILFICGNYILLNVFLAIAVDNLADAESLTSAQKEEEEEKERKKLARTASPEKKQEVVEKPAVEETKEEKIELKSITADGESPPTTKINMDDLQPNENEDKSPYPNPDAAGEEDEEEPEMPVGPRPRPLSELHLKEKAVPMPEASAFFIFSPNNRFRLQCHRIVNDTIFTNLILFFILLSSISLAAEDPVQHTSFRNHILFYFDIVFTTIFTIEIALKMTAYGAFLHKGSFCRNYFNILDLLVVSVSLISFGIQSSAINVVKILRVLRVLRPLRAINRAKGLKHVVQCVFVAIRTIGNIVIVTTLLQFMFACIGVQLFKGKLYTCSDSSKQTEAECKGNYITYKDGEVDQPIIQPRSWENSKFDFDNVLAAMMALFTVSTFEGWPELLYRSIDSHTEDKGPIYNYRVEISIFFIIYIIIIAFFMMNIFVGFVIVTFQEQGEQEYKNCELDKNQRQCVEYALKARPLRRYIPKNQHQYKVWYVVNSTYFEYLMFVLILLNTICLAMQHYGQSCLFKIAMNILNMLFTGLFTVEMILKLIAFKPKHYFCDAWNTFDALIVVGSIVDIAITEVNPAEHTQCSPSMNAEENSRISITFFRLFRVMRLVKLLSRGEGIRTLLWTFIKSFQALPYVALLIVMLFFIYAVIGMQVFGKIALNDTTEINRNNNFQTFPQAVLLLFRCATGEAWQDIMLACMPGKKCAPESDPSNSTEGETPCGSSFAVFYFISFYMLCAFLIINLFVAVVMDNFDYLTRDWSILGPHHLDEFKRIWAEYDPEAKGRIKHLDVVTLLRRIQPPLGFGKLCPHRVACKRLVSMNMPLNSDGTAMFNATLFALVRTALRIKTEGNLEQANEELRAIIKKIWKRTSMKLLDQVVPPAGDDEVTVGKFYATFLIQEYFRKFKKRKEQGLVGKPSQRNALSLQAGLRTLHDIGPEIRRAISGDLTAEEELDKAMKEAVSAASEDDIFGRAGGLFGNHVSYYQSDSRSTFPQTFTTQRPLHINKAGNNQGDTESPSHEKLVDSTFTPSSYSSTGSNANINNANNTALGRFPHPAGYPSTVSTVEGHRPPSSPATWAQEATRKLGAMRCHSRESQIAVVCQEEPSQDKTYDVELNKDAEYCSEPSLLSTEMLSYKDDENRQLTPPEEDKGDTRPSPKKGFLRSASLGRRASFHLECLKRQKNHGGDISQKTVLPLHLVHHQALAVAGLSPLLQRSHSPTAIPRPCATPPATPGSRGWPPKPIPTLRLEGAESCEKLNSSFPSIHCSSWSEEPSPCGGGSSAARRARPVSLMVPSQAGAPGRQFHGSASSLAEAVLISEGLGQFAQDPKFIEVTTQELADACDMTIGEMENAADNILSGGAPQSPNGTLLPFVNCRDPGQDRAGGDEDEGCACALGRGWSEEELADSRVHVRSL

Row | IC50 [nM] | Compound
1 | 3.05 | COC(=O)C1=C(C)NC(C)=C(C(=O)OCCCc2ccccc2)C1c1cnc(SC)n1Nc1ccccc1 (stereo not drawn)
2 | 3.22 | CCOC(=O)C1=C(C)NC(C)=C(C(=O)OC(C)C)C1c1cnc(SC)n1Nc1ccccc1 (stereo not drawn)
3 | 2.91 | CCOC(=O)C1=C(C)NC(C)=C(C(=O)OCCOC)C1c1cnc(SC)n1Nc1ccccc1 (stereo not drawn)
4 | 1.86 | CCOC(=O)C1=C(C)NC(C)=C(C(=O)OCc2ccccc2)C1c1cnc(SC)n1Nc1ccccc1 (stereo not drawn)
5 | 2.54 | CCOC(=O)C1=C(C)NC(C)=C(C(=O)OCCCc2ccccc2)C1c1cnc(SC)n1Nc1ccccc1 (stereo not drawn)
6 | 68.2 | CSc1ncc(C2C(C(=O)OC(C)C)=C(C)NC(C)=C2C(=O)OC(C)(C)C)n1Nc1ccccc1 (stereo not drawn)
7 | 53.4 | COCCOC(=O)C1=C(C)NC(C)=C(C(=O)OC(C)C)C1c1cnc(SC)n1Nc1ccccc1 (stereo not drawn)
8 | 7.24 | CSc1ncc(C2C(C(=O)OCc3ccccc3)=C(C)NC(C)=C2C(=O)OC(C)C)n1Nc1ccccc1 (stereo not drawn)
9 | 6.22 | CSc1ncc(C2C(C(=O)OCCCc3ccccc3)=C(C)NC(C)=C2C(=O)OC(C)C)n1Nc1ccccc1 (stereo not drawn)
10 | 56 | CSc1ncc(C2C(C(=O)OCC3CCCCC3)=C(C)NC(C)=C2C(=O)OC(C)C)n1Nc1ccccc1 (stereo not drawn)
11 | 6.71 | CSc1ncc(C2C(C(=O)OCC(C)C)=C(C)NC(C)=C2C(=O)OCC(C)C)n1Nc1ccccc1
12 | 17.9 | COCCOC(=O)C1=C(C)NC(C)=C(C(=O)OCCOC)C1c1cnc(SC)n1Nc1ccccc1
13 | 425 | CSc1ncc(C2C(C(=O)OC3CCCC3)=C(C)NC(C)=C2C(=O)OC2CCCC2)n1Nc1ccccc1
14 | 465 | CSc1ncc(C2C(C(=O)OC3CCCCC3)=C(C)NC(C)=C2C(=O)OC2CCCCC2)n1Nc1ccccc1
15 | 621 | CSc1ncc(C2C(C(=O)OCC3CCCCC3)=C(C)NC(C)=C2C(=O)OCC2CCCCC2)n1Nc1ccccc1
16 | 3.54 | COC(=O)C1=C(C)NC(C)=C(C(=O)OC)C1c1cnc(SC)n1Nc1ccccc1
17 | 1.69 | CCOC(=O)C1=C(C)NC(C)=C(C(=O)OCC)C1c1cnc(SC)n1Nc1ccccc1
18 | 2.29 | CCCOC(=O)C1=C(C)NC(C)=C(C(=O)OCCC)C1c1cnc(SC)n1Nc1ccccc1
19 | 2.16 | CSc1ncc(C2C(C(=O)OC(C)C)=C(C)NC(C)=C2C(=O)OC(C)C)n1Nc1ccccc1
20 | 121 | CSc1ncc(C2C(C(=O)OC(C)(C)C)=C(C)NC(C)=C2C(=O)OC(C)(C)C)n1Nc1ccccc1
21 | 1.49 | CSc1ncc(C2C(C(=O)OCc3ccccc3)=C(C)NC(C)=C2C(=O)OCc2ccccc2)n1Nc1ccccc1
22 | 2.79 | CSc1ncc(C2C(C(=O)OCCc3ccccc3)=C(C)NC(C)=C2C(=O)OCCc2ccccc2)n1Nc1ccccc1
23 | 3.15 | CSc1ncc(C2C(C(=O)OCCCc3ccccc3)=C(C)NC(C)=C2C(=O)OCCCc2ccccc2)n1Nc1ccccc1
24 | 1.66 | CCOC(=O)C1=C(C)NC(C)=C(C(=O)OC)C1c1cnc(SC)n1Nc1ccccc1 (stereo not drawn)
25 | 2.4 | CCCOC(=O)C1=C(C)NC(C)=C(C(=O)OC)C1c1cnc(SC)n1Nc1ccccc1 (stereo not drawn)
26 | 6.35 | COC(=O)C1=C(C)NC(C)=C(C(=O)OC(C)C)C1c1cnc(SC)n1Nc1ccccc1 (stereo not drawn)
27 | 9.65 | COCCOC(=O)C1=C(C)NC(C)=C(C(=O)OC)C1c1cnc(SC)n1Nc1ccccc1 (stereo not drawn)
28 | 2.21 | COC(=O)C1=C(C)NC(C)=C(C(=O)OCc2ccccc2)C1c1cnc(SC)n1Nc1ccccc1 (stereo not drawn)
